How the values were obtained:
[1] = target: T1, IV-cPLA(2) in activated U937 cells (Homo sapiens, UniProt P47712); test: PLA(2) activity: hydrolysis of bis-BODIPY FL C11-PC in TPA/A23187-activated U937 cells; type: cell-based; conditions: U-937; Concentration 10 μM; inflammatory activated PLA(2) activity, U937 cells
T1 sequence (P47712 1-749): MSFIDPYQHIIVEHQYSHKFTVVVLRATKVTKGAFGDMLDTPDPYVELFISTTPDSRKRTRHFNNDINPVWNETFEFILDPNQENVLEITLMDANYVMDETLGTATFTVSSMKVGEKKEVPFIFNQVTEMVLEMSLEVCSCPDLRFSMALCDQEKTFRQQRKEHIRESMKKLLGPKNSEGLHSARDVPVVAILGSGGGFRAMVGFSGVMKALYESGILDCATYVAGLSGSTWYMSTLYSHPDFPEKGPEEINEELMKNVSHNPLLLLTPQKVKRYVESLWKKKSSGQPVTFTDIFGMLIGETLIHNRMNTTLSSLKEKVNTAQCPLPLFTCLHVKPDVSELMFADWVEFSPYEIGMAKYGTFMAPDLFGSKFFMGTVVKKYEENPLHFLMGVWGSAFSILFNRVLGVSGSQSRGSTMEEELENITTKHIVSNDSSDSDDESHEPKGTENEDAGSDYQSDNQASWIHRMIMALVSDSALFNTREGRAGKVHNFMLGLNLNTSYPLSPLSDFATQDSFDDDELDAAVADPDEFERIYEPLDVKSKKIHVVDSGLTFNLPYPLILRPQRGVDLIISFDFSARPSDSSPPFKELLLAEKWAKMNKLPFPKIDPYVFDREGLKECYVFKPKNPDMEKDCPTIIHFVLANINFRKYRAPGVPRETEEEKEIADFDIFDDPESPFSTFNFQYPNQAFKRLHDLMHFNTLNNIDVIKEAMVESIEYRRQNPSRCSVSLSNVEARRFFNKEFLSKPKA
Protocol: The PLA(2) activity was measured by quantitatively analyzing the fluorescent product of hydrolysis from 1,2-bis-(4,4-difluoro-5,7-dimethyl-4-bora-3a,4a-diaza-s-indecene-3-undecanoyl)-sn-glycero-3-phosphocholine (hereinafter referred to bis-BODIPY®FL C11-PC, Molecular probes, Inc., B-7701) using activated U937 cells (human monoblastic lymphoma cell line) by inflammatory stimulus (Meshulam, T. et al., The journal of Biological Chemistry 267 (30): 21465–21470 (1992); and Solito, E. et al., British Journal of Pharmacology 124: 1675–1683(1998).). The substrate bis-BODIPY®FL C11-PC is incorporated into cellular membranes, the proximity of the BODIPY®FL fluorophores on adjacent phospholipid acyl chains causes fluorescence self-quenching. Separation of the fluorophores upon hydrolytic cleavage of one of the acyl chains by PLA(1) or the PLA(2) results in increased fluorescence. […]
The test compound was dissolved with DMSO at 30 mM, and the solution diluted with either DMSO or the Assay medium before addition into the reaction mixture. […] The increased fluorescence of the hydrolysis product by the enzyme was determined by measuring the fluorescence emission intensity at 535 nm with excitation at 485 nm from the top side of each plate at 37° C., using a Multi Functional Microplate Reader SPECTRA FLUOR PLUS (TECAN Austria GmbH). […]

[2] = tested on: acetic acid induced writhes; test: Acetic acid writhing; type: in vivo, mouse
Protocol: Pharmacological Test Example 4: Acetic Acid Wirthing
This test was carried out referring to the method of Inoue, K., Motonaga, A. & Nishimura, T (Arzneimittel Forshung/Drug Research, 41 (1): 235–239 (1991)). More specifically, 7.5 mL/kg of 0.9% acetic acid solution was injected intraperitoneally into an ICR-strain male mouse (5 to 7 weeks old), and the induced writhes (characteristic behaviors of convulsive contracting the abdomen, twisting the body and/or extending the legs) were observed. Number of writhes of each mouse was measured during 10 to 20 min. period after acetic acid administration. […] The analgesic activity of the compounds according to the present invention was evaluated on the basis of the degree of inhibiting the number writhes by the administration of the compounds. As the positive control, indomethacin or aspirin was administrated. The analgesic activity of the compounds according to the present invention measured in this test were exemplified in Table 7.

SMILES: CCOC(=O)C(=C1N[C@@H](C)[C@H](c2ccc(Cl)cc2)S1)[N+](=O)[O-] (relative stereo) [Compound 2-29, Trans-5-(4-chlorophenyl)-4-methyl-2-(1-ethoxycarbonyl-1-nitromethylene)-thiazolidine]
- inhibition at 10 µM [1]: 99%
- Number of writhes (Mean ± S.E.) ([2]; i.p. 1 mg/kg, 30 min before, vehicle i.p. 25.2 ± 2.2): 5.5 ± 1.9
- Number of writhes (Mean ± S.E.) ([2]; p.o. 10 mg/kg, 120 min before, vehicle p.o. 23.5 ± 3.1): 1.5 ± 0.7
